From patent US4157439A, “Novel nitrosourea derivatives” (priority 1976, dated 1979)
Read-outs that look alike come from different tables or passages of the source.

Tests used:
[1] = cited from earlier work
[2] = background statement on earlier compounds; cited from earlier work
[3] = tested on: leukemia and tumors; details: background statement on earlier compounds; cited from earlier work
[4] = Acute toxicity in the intraperitoneal administration to BDF1 mice; details: mouse, in vivo, ip
Description: It will be appreciated clearly from the tests results of Table 1 that the novel nitrosourea derivatives according to this invention gave a significant increase in life-span in therapeutic treatment of the leukemia in comparison with streptozotocin as a known anti-leukemic nitrosourea. The novel nitrosourea derivatives according to this invention are further characterized by their low toxicity, thus satisfying their practical application for treating leukemia and tumor diseases. For example, acute toxicity in the intraperitoneal administration to BDF1 mice of typical nitrosourea derivatives according to this invention is shown below: […]

[5] = tested on: Leukemia L 1210; assay: Anti-leukemic activity on Leukemia L 1210 in mice (survival, percentage increase in life-span); type: in vivo, male BDF1 mice; details: for Survival days (mean): untreated control 8.0 days; for Number of survivors (after 60 days): survivors/animals after 60 days
Method: The anti-leukemic activity of some typical nitrosourea derivatives of the formula (I) according to this invention was tested on Leukemia L 1210 in mice, details of which are given below. By way of comparison, Streptozotocin was tested in the same way.
Male BDF1 mice, aging about 6-weeks old and weighing 22±1 g were used in groups of 5 animals each for the tests.
Each animal was inoculated with 10^6 cells of L 1210 intraperitoneally,and the test compound in the form as shown below was administered intraperitoneally from the 24th hour after inoculation once a day for 3 consecutive days. The anti-leukemic activity was assessed by comparing the mean survival days of the treated mice to that of the untreated control, i.e. percentage increase in life-span (ILS) which was calculated as follows:
Percentage increase in life-span (ILS)=(T-C/C)×100
T: The mean survival days of the treated animals
C: The mean survival days of the untreated animals
The compounds No. 1 and No. 3 were used in the form of an aqueous solution in distilled water and the compound No. 2 in the form of an aqueous suspension containing 1% CMC.

[6] = background statement on earlier compounds
[7] = dose 4 mg/kg i.p. once a day for 3 days, 60 days observation
[8] = dose 4 mg/kg i.p. once a day for 3 days
[9] = dose 8 mg/kg i.p. once a day for 3 days, 60 days observation
[10] = dose 8 mg/kg i.p. once a day for 3 days
[11] = dose 1 mg/kg i.p. once a day for 3 days, 60 days observation
[12] = dose 2 mg/kg i.p. once a day for 3 days, 60 days observation

Compound	activity against the leukemia and tumors [3]	LD50 [4] [mg/kg]	ILS (percentage increase in life-span) [5, 7] [%]	Survival days (mean) [5, 7] [days]	Number of survivors (after 60 days) [5, 8]	ILS (percentage increase in life-span) [5, 9] [%]	Survival days (mean) [5, 9] [days]	Number of survivors (after 60 days) [5, 10]	other results
O=NN(CCCl)C(=O)N[C@@H]1O[C@H](CO)[C@@H](O)[C@H](O)[C@H]1O [1-(2-chloroethyl)-3-(β-D-glucopyranosyl)-1-nitrosourea]	remarkably high inhibitory activity against a variety of leukemia and tumors	–	–	–	–	–	–	–	side effect [1, 6]: low side effect; toxicity [1, 6]: low toxicity; hygroscopicity [2]: somewhat hygroscopic
CC(=O)N[C@@H]1[C@@H](OC(C)=O)[C@H](OC(C)=O)[C@@H](COC(C)=O)O[C@H]1NC(=O)N(CCCl)N=O [compound 1, 1-(2-Chloroethyl)-3-(2-acetamido-3,4,6-tri-O-acetyl-2-deoxy-β-D-glucopyranosyl)-1-nitrosourea]	–	25	78.8	14.3	0/5	105.0	16.4	0/5	–
CC(=O)N[C@@H]1[C@@H](O)[C@H](O)[C@@H](CO)O[C@H]1NC(=O)N(CCCl)N=O [compound 2, 1-(2-Chloroethyl)-3-(2-acetamido-2-deoxy-β-D-glucopyranosyl)-1-nitrosourea]	–	20	95.0	15.6	0/5	< 495.0	< 47.6	3/5	ILS (percentage increase in life-span) [5, 11]: 41.3%; Survival days (mean) [5, 11]: 11.3 days; Number of survivors (after 60 days) ([5]; dose 1 mg/kg i.p. once a day for 3 days): 0/5; ILS (percentage increase in life-span) [5, 12]: 55.0%; Survival days (mean) [5, 12]: 12.4 days; Number of survivors (after 60 days) ([5]; dose 2 mg/kg i.p. once a day for 3 days): 0/5
CN(N=O)C(=O)N[C@H]1C(O)O[C@H](CO)[C@@H](O)[C@@H]1O (stereo partly drawn) [compound 3, N-(N'-methyl-N'-nitroso-carbamoyl)-D-glucosamine, reference compound]	insufficient activity against the leukemia and tumors	–	–	–	–	–	–	–	side effect ([1]; in vivo): undesirable side effect; Survival days (mean) ([5]; dose 50 mg/kg i.p. once a day for 3 days, 60 days observation): 12.1 days; Number of survivors (after 60 days) ([5]; dose 50 mg/kg i.p. once a day for 3 days): 0/5; Survival days (mean) ([5]; dose 100 mg/kg i.p. once a day for 3 days, 60 days observation): 10.6 days; Number of survivors (after 60 days) ([5]; dose 100 mg/kg i.p. once a day for 3 days): 0/5; ILS (percentage increase in life-span) ([5]; ip, 50 mg/kg): 51.3%; ILS (percentage increase in life-span) ([5]; ip, 100 mg/kg): 32.5%
